Measured values as given in publication PMC9376960, “Ruthenium(II)–Tris-pyrazolylmethane Complexes Inhibit Cancer Cell Growth by Disrupting Mitochondrial Calcium Homeostasis” (Journal of Medicinal Chemistry, 2022).

Tests used:
[1] = tested on: MMC-2; test: MTT assay, NER-deficient cells; assay type: cell-based, Chinese hamster; conditions: 72 h
Source text: (§1) The human cervical carcinoma HeLa cells and human colorectal carcinoma cells HCT116 were kindly supplied by Professor B. Keppler, University of Vienna (Austria). Human rhabdomyosarcoma RD cells were purchased from the American Type Culture Collection (ATCC, Manassas, VA). Human breast cancer MCF-7 cells, human skin melanoma 518A2 cells, and human MRC5pd30 cells derived from normal lung tissue were purchased from the European Collection of Authenticated Cell Cultures (ECACC) (Salisbury, U.K.). Chinese hamster ovary CHO-K1 cell line (wild type) and its derivative MMC-2 carrying the ERCC3/XPB mutation (NER-deficient) cell line were kindly supplied by Dr. […], Cancer Research Institute, Slovak Academy of Sciences, Bratislava (Slovakia). In vitro antiproliferative activity of Ru complexes was determined by the MTT or, alternatively, SRB assay as already described,[84] after 72 h of incubation of cells with various concentrations of the Ru complex. The reported IC50 values are an average of three independent experiments, each consisting of three replicates per concentration.

[2] = tested on: 518A2; design: method as in PMID 32555811; conditions: MTT, 72 h; cited from earlier work
[3] = tested on: HCT116; design: method as in PMID 30740808; conditions: MTT, 72 h; cited from earlier work
[4] = tested on: HeLa; design: method as in PMID 30740808; conditions: MTT, 72 h; cited from earlier work
[5] = tested on: RD; test: MTT antiproliferative assay; assay type: cell-based, human; conditions: 72 h, mean ± SD
Procedure: All of the cell lines were cultivated in DMEM medium (high glucose 4.5 g L^–1, PAA, Pasching, Austria) supplemented with gentamycin (50 μg mL^–1, Serva, Heidelberg, Germany) and 10% heat-inactivated fetal bovine serum (PAA). The medium for MRC5pd30 cells was further supplemented by 1% nonessential amino acids (Sigma-Aldrich, Prague, Czech Republic). All cells were cultured as adherent monolayers in a humidified incubator at 37 °C in a 5% CO2 atmosphere and subcultured twice a week with an appropriate plating density. In vitro antiproliferative activity of Ru complexes was determined by the MTT or, alternatively, SRB assay as already described,[84] after 72 h of incubation of cells with various concentrations of the Ru complex. The reported IC50 values are an average of three independent experiments, each consisting of three replicates per concentration.

[6] = tested on: MCF-7; design: method as in PMID 30740808; conditions: MTT, 72 h; cited from earlier work
[7] = tested on: HCT116 (3D); test: Cytotoxicity in 3D spheroids (colonospheres), Cell Titer-Glo 3D; assay type: cell-based, human
Procedure: A spontaneous spheroid formation was used to generate colonospheres derived from the HCT116 cell line. The HCT116 cells were seeded on 96-well ultralow attachment plates (1400 cells/well) and cultivated in a tumor sphere-forming medium (DMEM/F12, supplemented with B27 (Invitrogen), BSA, bFGF (10 ng mL^–1), and EGF (20 ng mL^–1)) for 4 days. After the incubation period, colonospheres were treated with Ru complexes for another 3 days. The viability of colonospheres was determined by the Cell Titer-Glo 3D cell viability assay (Promega) according to the manufacturer’s instructions. The reported IC50 values are the average of three independent experiments, each consisting of three replicates per concentration level. Bright-field images of the spheroids were taken as well to determine the effect on the morphology of the spheroids.

[8] = tested on: MRC5pd30; design: method as in PMID 30740808; conditions: MTT, 72 h; cited from earlier work
[9] = tested on: DNA; design: method as in PMID 25888926, PMID 28623355; conditions: cited from earlier work
[10] = tested on: CHO-K1; test: MTT assay, wild-type cells; assay type: cell-based, Chinese hamster; conditions: 72 h
Source text: as §1

N.N.[Cl][Pt][Cl] [cisplatin]
IC50 [1]: 5.5 ± 0.8 µM
IC50 [2]: 2.6 ± 0.7 µM
IC50 [3]: 8 ± 1 µM
IC50 [4]: 14 ± 3 µM
IC50 [5]: 4.6 ± 0.3 µM
IC50 [6]: 13 ± 3 µM
effect on the morphology of 3D spheroids ([7]; 20 µM, 72 h, bright-field images): heterogeneous morphology with several dissociated cell clumps
IC50 ([7]; Cell Titer-Glo, spheroids, 72 h of treatment): 44.6 ± 1.8 µM
IC50 [8]: 11.7 ± 0.8 µM
intracellular platinum that reaches the nucleus and binds to DNA [9]: 2–3%
IC50 [10]: 54 ± 6 µM
